Reference: patent US12540161B2, “Linkers” (BicycleTx Limited, priority 2020, dated 2026)

Assays:
Cathepsin B = Cathepsin B (Homo sapiens, UniProt P07858); assay: Cathepsin B (CatB) cleavage assay; type: biochemical; conditions: BTCs
in vivo = conditions: male, CD-1, mouse, plasma, intravenous
Procedure: Male CD-1 mice were dosed with each Bicycle Conjugate formulated in 25 mM histidine HCl, 10% sucrose pH 7 via tail vein injection. Serial bleeding (about 80 μL blood/time point) was performed via submadibular or saphenous vein at each time point. All blood samples were immediately transferred into prechilled microcentrifuge tubes containing 2 μL K2-EDTA (0.5M) as anti-coagulant and placed on wet ice. Blood samples were immediately processed for plasma by centrifugation at approximately 4° C., 3000 g. The precipitant including internal standard (350 μL) was immediately added into the 35 μL plasma sample, mixed well and centrifuged at 3220 g, 4° C. for 15 minutes. The supernatant was transferred into pre-labeled polypropylene microcentrifuge tubes, and then quick-frozen over dry ice. The samples were stored at 70° C. or below as needed until analysis. Supernatant samples were mixed with 50 μL water, vortexed well and centrifuged at 3220 g, 4° C. for 15 minutes. A sample of the supernatant was injected for LC-MS/MS analysis using an Acquity UPLC with AB Sciex 6500+ Triple Quad MS in positive ion mode to determine the concentrations of Bicycle Conjugate and released payload. Plasma concentration versus time data were analyzed by non-compartmental approaches using the Phoenix WinNonlin 6.3 software program. C0, Cl, Vdss, T1/2, AUC(0-inf), MRT(0-last), MRT(0-inf) nd graphs of plasma concentration versus time profile were reported.

in vitro = conditions: human, plasma, pH 7.4
Procedure: Pooled frozen plasma was thawed in a water bath at 37° C. Plasma was centrifuged at 4000 rpm for 5 min and the clots were removed if any. The pH will be adjusted to 7.4±0.1 if required. 1 mM stock solution was prepared with DMSO. Propantheline (positive control) was prepared by making a 100 μM working solution by diluting 5 μL of the stock solution (10 mM) with 495 μL ultra pure water. 100 μM working solutions of test compounds were made up by diluting 10 μL of the stock solution (1 mM) with 90 μL DMSO. 98 μL of blank plasma was spiked with 2 μL of dosing solution (100 μM) to achieve 2 μM of the final concentration in duplicate and samples were incubated at 37° C. in a water bath. At each time point (0, 1, 2, 4, 6 and 24 hr), 400 μL of 200 ng/mL tolbutamide and labetalol in 100% MeOH was added and mixed thoroughly to precipitate proteins. Sample plates were centrifuged at 4,000 rpm for 15 min. An aliquot of supernatant (150 μL) was transferred from each well before submitting for LC-MS/MS analysis.
The % remaining test compound after incubation in plasma was calculated using following equation: Remaining=100×(PAR at appointed incubation time/PAR at T0 time)
where PAR is the peak area ratio of analyte versus internal standard (IS).
The appointed incubation time points are T0 (0 hr), Tn (n=0, 1, 2, 4, 6, 24 hr). The half-life (T½) was calculated from a log linear plot of concentration versus time.
When the % remaining value at the maximal incubation time, which was 24 hr in this study, was higher than 75%, it is considered to be within the acceptable experimental variation.

## CC[C@H](C)[C@@H]([C@@H](CC(=O)N1CCC[C@H]1[C@H](OC)[C@@H](C)C(=O)N[C@H](C)[C@@H](O)c1ccccc1)OC)N(C)C(=O)[C@@H](NC(=O)[C@H](C(C)C)N(C)C(=O)OCc1ccc(NC(=O)[C@H](CCCNC(N)=O)NC(=O)[C@H](Cc2cccc3ccccc23)NC(=O)[C@H](CCC(=O)O)NC(=O)Cn2cc(CCC(=O)NCCC(=O)N(C)CC(=O)N(C)CC(=O)N(C)CC(=O)N(C)CC(=O)N(C)CC(=O)N(C)CC(=O)N(C)CC(=O)N(C)CC(=O)N(C)CC(=O)N(C)CC(=O)N[C@@H](C)C(=O)N[C@H]3CN(C)Cc4cc5cc(c4)CN(C)C[C@@H](C(N)=O)NC(=O)[C@H](C(C)(C)C)NC(=O)[C@H](CC(=O)O)NC(=O)[C@H](Cc4ccc(O)cc4)NC(=O)[C@H](Cc4ccccc4)NC(=O)[C@H](CC(=O)O)NC(=O)[C@H](CCC(=O)O)NC(=O)[C@H](CSC5)NC(=O)[C@@H](C)NC(=O)[C@H](Cc4cccc5ccccc45)NC(=O)[C@H](CCC(=O)O)NC(=O)[C@H](CC(N)=O)NC(=O)[C@@H](C)NC3=O)nn2)cc1)C(C)C [BCY10984, MMAE-PAB-(Cit-1Nal-Glu)-BCY3900]
Cathepsin B; 0 h
  % Parent remaining after incubation with CatB, 0 h: 100%
Cathepsin B; 1 h
  % Parent remaining after incubation with CatB, 1 h: 94.498%
Cathepsin B; 2 h
  % Parent remaining after incubation with CatB, 2 h: 83.5%
Cathepsin B; 4 h
  % Parent remaining after incubation with CatB, 4 h: 39.2%
Cathepsin B; 6 h
  % Parent remaining after incubation with CatB, 6 h: 33.4%
Cathepsin B; 24 h
  % Parent remaining after incubation with CatB, 24 h: 32.5%
Cathepsin B; read-out: CatB t1/2 (converted)
  half-life at 40 μM: 3.3 h
In vivo
  C0: 112 µg/mL
  Vd: 0.09 L/kg
  clearance: 0.2 mL/min/kg
  half-life: 7.55 h
In vitro
  half-life at 2 μM: > 57.8 h
